Patent US5763423A, “Pharmaceutical compositions, novel uses, and novel form of tocopherylphosphocholine” (Clarion Pharmaeuticals Inc., priority 1996, dated 1998)
Entries after “also recorded” stand apart in the source; their conditions may differ.

Tests used:
Poliovirus Type III [1] = assay type: cell-based; details: 100 μM, 48 hr
[2] = Anti-PAF activity in anesthetized guinea pigs (total pulmonary resistance); assay type: in vivo; details: for TPR after PAF, % of Controls: PAF controls 183.36; for PAF antagonist activity / TPR (in words): 1, 3, 10, 30 and 50 μM per kg
[3] = test system: Herpes simplex virus type-1; test: Viral yield reduction assay, Herpes Simplex Virus Type 1; assay type: cell-based, HSV-1 KOS strain (in Buffalo Green Monkey Kidney cells)
Description: (§1) The first assay is for inhibition of cytopathic effects (CPE) caused by viral infection of the cells and the second is a standard viral yield reduction assay. This yield reduction assay is a modification of the general method described by Erlich et al., Ann. NY Acad. Sci. 130, 5-16 (1965).
(§2) 1. Buffalo Green Monkey Kidney cells, obtained from Dr. G. Sedmak, City of Milwaukee, Public Health Department Virology Laboratory, are plated at a density of 7×10^4 cells per well in a standard flat bottom 96 well cell culture plate. The cells are contained in a volume of 200 μl Dulbecco's Modified Eagles Medium (DMEM) containing 10% serum [1:1 mixture of fetal bovine serum and defined supplemented calf serum (Hyclone, Inc., Ogden, Utah), 10 mM HEPES buffer (pH 7.2), 100 U/ml penicillin and 100 μg/ml streptomycin sulfate]. HEPES and antibiotics are obtained from Sigma Chemical Co. (St. Louis, Mo.). Two wells are plated for each of the following samples: compound CPR-2001, cell control (cells only), virus control (cells infected but not treated), vehicle control (solvent for compound, 9:1 dimethylsulfoxide:ethanol), and cell counts.
(§3) 2. The cultures are incubated at 37° C. with 5% CO2 until a monolayer of cells is formed on the bottom of each well (usually overnight).
(§4) 3. The media is removed from the wells by aspiration. The cells are refed with media containing the desired concentration of test compound CPR-2001 (100 μM final concentration), media only (cell control and virus control samples), or solvent (9:1, DMSO:ethanol) at a final concentration of 0.33%. Compound CPR-2001 is dissolved at a stock concentration of 30 mM and diluted 300-fold. The cell count wells receive media only.
(§5) 4. The cultures are incubated for 24 hr at 37° C. with 5% CO2.
7. […]
10. After scoring for viral CPE, the yield of infectious virus in each well is measured by standard plaque assay on Vero cells (ATCC #CCL81). […] Excess stain is rinsed from the cells, the number of plaques are counted and the yield of virus in the original sample is calculated.

Cryptococcus neoformans = test: Antifungal assay, Cryptococcus neoformans; assay type: cell-based
Description: (§6) 1. 10^4 Cells (either C. albicans or C. neoformans) are placed in wells of a 96-well plate within a total volume of 90 μl. Cells are grown in RPMI-1640 plus 10% FCS.
(§7) 2. Add 10 μl of control or drug to be evaluated (CPR-2001):
(§8) Fungizone (2.5 μg/ml and 5.0 μg/ml); and
(§9) 3. Incubate for 48 hours at 37° C.
(§10) 5. Plate onto Sabourand plates and incubate overnight at 37° C.; and
(§11) 6. Count and record colonies.
(§12) All samples are tested in duplicate in two separate experiments. The data are then averaged to obtain the following results in Table 2.

Candida albicans = test: Antifungal assay, Candida albicans; assay type: cell-based
Description: as §6, §7, §8, §9, §10, §11, §12

RAW 264.7 cells = test: Chemiluminescence (CL) assay, inhibition of macrophage activation by PMA; details: for anti-inflammatory activity (in words): 1 to 30 μM; for inhibition at 1 µM / inhibition at 3 µM / inhibition at 10 µM / inhibition at 30 µM: Mus musculus, RAW264.7, read-out: % inhibition of macrophage activation by PMA
[4] = Electron microscopy of liposomes; assay type: physicochemical
Description: (§13) Five micromoles of CPR-2001 are dissolved in about 1 ml. of chloroform. The solution is transferred to a 16×120 mm screw-capped tube. The tube is placed, uncapped, inside a 1×8 inch boiling tube with B24/40 standard glass fitting. Inside the boiling tube, in the space between the boiling tube and the smaller screw-capped tube, there is a small amount of distilled water to aid thermal contact between the inner and outer tube. The boiling tube is placed on a rotary evaporator under reduced pressure to evaporate the chloroform and leave the lipid as a thin film in the lower portion of the screw-capped tube. The boiling tube is partly immersed in a water bath at 37° C. during the evaporation to aid the process.
Once a thin film has been formed, the screw-capped tube is removed from the boiling tube, and one ml. of aqueous solution is added to it. The tube is capped and immersed in a water bath at 75° C. to aid swelling of the lipid. Swelling of the film is observed to occur when the film becomes cloudy, and is, with agitation, dislodged from the walls of the tube to give a cloudy suspension in the aqueous medium. This suspension is found to consist of liposomes by the application of two techniques. First, laser-light scattering, or QELS, reveal the presence of particles of 658 nm in diameter in one determination, 1468 nm in another. […]

[5] = test system: Herpes simplex virus type-1; test: Inhibition of cytopathic effects (CPE), Herpes Simplex Virus Type 1; assay type: cell-based, HSV-1 KOS strain (in Buffalo Green Monkey Kidney cells); details: 100 μM, 48 hr
Description: as §1, §2
2. […]
9. At the end of 48 hr, each well is scored for the presence of CPE as indicated by rounding and/or detachment of the cells from the plate. […]

[6] = test system: Buffalo Green Monkey Kidney cells; test: Toxicity to uninfected cells (rounding and/or detachment, 24 hr); assay type: cell-based; parameters: key to Toxicity 24 hr: Not toxic
Description: as §2, §3, §4, §5
5. At the end of 24 hr, each well is scored for the presence of toxicity (cells exposed to compound but not infected) as indicated by rounding and/or detachment of the cells from the plate. Scoring is as follows: 1+, 25% of cells rounded; 2+, 25 to 50% of cells rounded; 3+, 75% of cells rounded; 4+, 100% of cells rounded.

Poliovirus Type III [7] = assay type: cell-based; details: 100 μM, 48 hr; remark: listed apart in the source
[8] = Liposome particle size by laser-light scattering (QELS); assay type: physicochemical; details: 10 micromoles
Excerpt: as §13, with “Five micromoles of CPR-2001 are dissolved in about 1 ml. of chloroform.” left out
Once a thin film has been formed, the screw-capped tube is removed from the boiling tube, and one ml. of aqueous solution is added to it. The tube is capped and immersed in a water bath at 75° C. to aid swelling of the lipid. Swelling of the film is observed to occur when the film becomes cloudy, and is, with agitation, dislodged from the walls of the tube to give a cloudy suspension in the aqueous medium. This suspension is found to consist of liposomes by the application of two techniques. First, laser-light scattering, or QELS, reveal the presence of particles of 658 nm in diameter in one determination, 1468 nm in another.
In a second preparation, 10 micromoles of CPR 2001 are taken through the identical procedure described above. […]

[9] = increasing concentration, 1 to 100 μg/ml

Cc1c(C)c2c(c(C)c1OP(=O)([O-])OCC[N+](C)(C)C)CCC(C)(CCCC(C)CCCC(C)CCCC(C)C)O2 (stereo not drawn) [CPR-2001, α-tocopherolphosphocholine]
CPE (Poliovirus Type III [1]): 2+ (25 to 50% of cells rounded)
development of viral CPE (in words) (Poliovirus Type III [1]): inhibits the development of viral CPE
TPR after PAF, % of Controls ([2]; 1 μM/kg i.v.): 193.75 % of Controls
TPR after PAF, % of Controls ([2]; 3 μM/kg i.v.): 124.58 % of Controls
TPR after PAF, % of Controls ([2]; 10 μM/kg i.v.): 98.19 % of Controls
TPR after PAF, % of Controls ([2]; 30 μM/kg i.v.): 19.60 % of Controls
TPR after PAF, % of Controls ([2]; 50 μM/kg i.v.): 8.33 % of Controls
PAF antagonist activity / TPR (in words) [2]: Decreases of TPR in a dose-related way
PAF antagonist activity / TPR (in words) ([2]; listed as α-tocopherolphosphocholine): marked PAF antagonist activity
Virus Yields (48 Hours) ([3]; 100 μM): 5.5 × 10^4 PFU/ml
Reduction of virus yield (fold reduction) ([3]; 100 μM, 48 hr, compared to virus and vehicle control): 18 fold
activity at 100 µM ([3]; Human alphaherpesvirus 1, BGMK, in Chlorocebus sabaeus, 48 hr, virus control 1.00, read-out: Virus Yields (48 Hours), Yield): 5.5%
inhibition at 1 µg/mL (Cryptococcus neoformans; Cryptococcus neoformans, 1 mcg/ml, 48 hours): 10%
inhibition at 10 µg/mL (Cryptococcus neoformans; Cryptococcus neoformans, 10 mcg/ml, 48 hours): 40%
inhibition at 100 µg/mL (Cryptococcus neoformans; Cryptococcus neoformans, 100 mcg/ml, 48 hours): 73%
percent of fungal inhibition (in words) (Cryptococcus neoformans; [9]): the percent of fungal inhibition also increases
inhibition at 1 µg/mL (Candida albicans; Candida albicans, 1 mcg/ml, 48 hours): 25%
inhibition at 10 µg/mL (Candida albicans; Candida albicans, 10 mcg/ml, 48 hours): 40%
inhibition at 100 µg/mL (Candida albicans; Candida albicans, 100 mcg/ml, 48 hours): 76%
percent of fungal inhibition (in words) (Candida albicans; [9]): the percent of fungal inhibition also increases
anti-inflammatory activity (in words) (RAW 264.7 cells): marked dose-related anti-inflammatory activity
anti-inflammatory activity (in words) (RAW 264.7 cells; listed as CPR2001): antiinflammatory activity markedly increases
inhibition at 1 µM (RAW 264.7 cells): 5%
inhibition at 3 µM (RAW 264.7 cells): 13%
inhibition at 10 µM (RAW 264.7 cells): 31%
inhibition at 30 µM (RAW 264.7 cells): 56%
structure of particles by electron microscopy ([4]; 5 micromoles, not sonicated): characteristic concentric lamellar structure of liposomes
structure of particles by electron microscopy ([4]; 10 micromoles, after sonication): still multilamellar, but smaller
Viral CPE [5]: 1+ (<25% of cells rounded)
development of viral cytopathic effect (in words) [5]: markedly inhibits the development of viral cytopathic effect
Toxicity ([6]; Table 1A, 100 μM, 24 hr): N-±
Toxicity 24 hr ([6]; Table 1B, 100 μM, 24 hr): N
Toxicity (in words) ([6]; at antivirally effective levels): No apparent cytotoxicity; also recorded: not toxic
Titer (Poliovirus Type III [7]): 2.7 × 10^6 pfu/ml
Fold-Reduction of virus yield (Poliovirus Type III [7]; compared to virus control): 10.7 fold
particle size of liposomes (QELS) ([8]; after about 10 minutes sonication at 75° C.): 102 nm
particle size of liposomes (QELS) ([8]; before sonication): greater than 5,000 nm

CC1=C(/C=C/C(C)=C/C=C/C(C)=C/C(=O)O)C(C)(C)CCC1 [Retinoic Acid, retinoic acid]
inhibition at 1 µM (RAW 264.7 cells): 2%
inhibition at 3 µM (RAW 264.7 cells): 6%
inhibition at 10 µM (RAW 264.7 cells): 3%
inhibition at 30 µM (RAW 264.7 cells): 6%

Cc1c(C)c2c(c(C)c1O)CCC(C)(CCCC(C)CCCC(C)CCCC(C)C)O2 (stereo not drawn) [α-Tocopherol, α-tocopherol]
inhibition at 1 µM (RAW 264.7 cells): -3%
inhibition at 3 µM (RAW 264.7 cells): -6%
inhibition at 10 µM (RAW 264.7 cells): -6%
inhibition at 30 µM (RAW 264.7 cells): -14%
